Reference: PMC4457528, “Identification of Novel Small Molecule Inhibitors of Oncogenic RET Kinase” (PLoS ONE, 2015)
Like-named read-outs stand apart in the source and are kept apart here.

What was measured:
RET/C634Y = settings: 10 nM, 2 hr, NIH3T3, Western blotting, data not shown
KinomeScan kinase panel [1] = molecular target: T1, KinomeScan kinase panel (Homo sapiens, UniProt P30291); experiment: KinomeScan kinase panel, single concentration 10 µM; assay type: binding; settings: kinase WEE1; 10 µM; read-out: score (%)
T1 construct: purchased DiscoveRx (KinomeScan)

KinomeScan kinase panel [2] = molecular target: T2, KinomeScan kinase panel (Homo sapiens, UniProt Q05397); experiment: as above; assay type: binding; settings: read-out: score (%)
T2 construct: purchased DiscoveRx (KinomeScan)
T2 sequence (Q05397 whole entry): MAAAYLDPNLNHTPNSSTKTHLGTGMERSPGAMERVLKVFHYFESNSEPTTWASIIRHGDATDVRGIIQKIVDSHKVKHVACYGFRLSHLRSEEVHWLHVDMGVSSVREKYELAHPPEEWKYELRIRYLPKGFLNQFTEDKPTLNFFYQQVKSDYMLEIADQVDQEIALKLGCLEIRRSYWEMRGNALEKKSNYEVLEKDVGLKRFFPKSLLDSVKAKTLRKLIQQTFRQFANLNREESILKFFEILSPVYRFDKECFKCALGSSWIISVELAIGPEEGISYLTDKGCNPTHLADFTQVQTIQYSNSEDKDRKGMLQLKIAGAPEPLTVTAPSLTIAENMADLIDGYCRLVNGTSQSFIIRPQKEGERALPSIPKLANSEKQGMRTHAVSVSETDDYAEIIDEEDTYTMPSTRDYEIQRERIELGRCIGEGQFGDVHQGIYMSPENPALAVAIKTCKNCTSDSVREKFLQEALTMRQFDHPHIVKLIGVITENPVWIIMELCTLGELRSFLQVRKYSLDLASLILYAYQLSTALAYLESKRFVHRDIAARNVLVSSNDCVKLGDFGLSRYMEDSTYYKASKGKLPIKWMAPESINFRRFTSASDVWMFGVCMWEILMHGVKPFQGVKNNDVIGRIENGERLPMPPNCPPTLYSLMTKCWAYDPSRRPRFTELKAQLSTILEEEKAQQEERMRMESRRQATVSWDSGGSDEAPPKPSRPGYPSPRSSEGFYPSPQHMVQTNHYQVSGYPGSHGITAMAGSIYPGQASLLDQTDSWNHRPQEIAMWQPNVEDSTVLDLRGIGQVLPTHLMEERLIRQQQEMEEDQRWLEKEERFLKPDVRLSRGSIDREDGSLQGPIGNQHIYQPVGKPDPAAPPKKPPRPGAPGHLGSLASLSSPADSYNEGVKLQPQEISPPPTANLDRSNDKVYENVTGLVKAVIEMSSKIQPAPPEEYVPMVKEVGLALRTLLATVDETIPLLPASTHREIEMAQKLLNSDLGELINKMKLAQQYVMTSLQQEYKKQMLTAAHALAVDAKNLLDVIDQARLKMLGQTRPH

KinomeScan kinase panel [3] = molecular target: T3, KinomeScan kinase panel (Homo sapiens, UniProt P21802); experiment: as above; assay type: binding; settings: FGFR2, 10 µM; read-out: score (%)
T3 construct: purchased DiscoveRx (KinomeScan)
T3 sequence (P21802 22-821): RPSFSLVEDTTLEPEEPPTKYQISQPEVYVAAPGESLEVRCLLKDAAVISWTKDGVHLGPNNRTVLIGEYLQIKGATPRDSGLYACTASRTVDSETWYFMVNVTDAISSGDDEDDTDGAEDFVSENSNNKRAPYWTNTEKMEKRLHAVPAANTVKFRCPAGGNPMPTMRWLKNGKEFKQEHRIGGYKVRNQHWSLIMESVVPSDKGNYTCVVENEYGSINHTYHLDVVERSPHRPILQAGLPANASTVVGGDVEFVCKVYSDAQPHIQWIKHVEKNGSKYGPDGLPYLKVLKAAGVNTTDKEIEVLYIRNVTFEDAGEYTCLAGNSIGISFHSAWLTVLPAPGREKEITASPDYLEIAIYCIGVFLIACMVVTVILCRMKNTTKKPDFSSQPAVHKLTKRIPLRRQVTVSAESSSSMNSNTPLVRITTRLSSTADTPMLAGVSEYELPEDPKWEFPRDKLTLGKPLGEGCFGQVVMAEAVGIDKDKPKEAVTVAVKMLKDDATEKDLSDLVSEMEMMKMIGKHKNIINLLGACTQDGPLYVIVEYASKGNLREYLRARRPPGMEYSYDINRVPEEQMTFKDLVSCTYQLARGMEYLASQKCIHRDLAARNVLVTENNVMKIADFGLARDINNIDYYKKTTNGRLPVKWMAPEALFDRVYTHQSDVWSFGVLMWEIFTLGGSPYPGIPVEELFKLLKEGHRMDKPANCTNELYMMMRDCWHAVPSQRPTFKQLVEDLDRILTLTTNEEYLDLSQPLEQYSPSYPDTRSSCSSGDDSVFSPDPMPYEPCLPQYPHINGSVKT

KinomeScan kinase panel [4] = molecular target: T4, KinomeScan kinase panel (Homo sapiens, UniProt P51817); experiment: as above; assay type: binding; settings: 10 µM, read-out: score (%)
T4 construct: purchased DiscoveRx (KinomeScan)
T4 sequence (P51817 1-358): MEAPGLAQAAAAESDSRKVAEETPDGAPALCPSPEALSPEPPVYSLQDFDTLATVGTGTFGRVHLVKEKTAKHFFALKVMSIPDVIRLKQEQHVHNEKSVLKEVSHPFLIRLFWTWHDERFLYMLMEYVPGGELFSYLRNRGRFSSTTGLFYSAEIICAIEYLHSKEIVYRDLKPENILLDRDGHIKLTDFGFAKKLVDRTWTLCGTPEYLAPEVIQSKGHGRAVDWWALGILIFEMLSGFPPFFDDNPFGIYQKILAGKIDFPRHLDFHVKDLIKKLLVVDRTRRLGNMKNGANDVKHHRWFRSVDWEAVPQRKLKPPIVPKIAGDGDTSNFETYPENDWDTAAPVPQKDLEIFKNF

KinomeScan kinase panel [5] = molecular target: T5, KinomeScan kinase panel (Homo sapiens, UniProt P00533, DEL746-750); experiment: as above; assay type: binding
T5 construct: purchased DiscoveRx (KinomeScan)

KinomeScan kinase panel [6] = molecular target: T6, KinomeScan kinase panel (Homo sapiens, UniProt Q9H1R3); experiment: as above; assay type: binding; settings: MYLK2, 10 µM; read-out: score (%)
T6 construct: purchased DiscoveRx (KinomeScan)
T6 sequence (Q9H1R3 whole entry): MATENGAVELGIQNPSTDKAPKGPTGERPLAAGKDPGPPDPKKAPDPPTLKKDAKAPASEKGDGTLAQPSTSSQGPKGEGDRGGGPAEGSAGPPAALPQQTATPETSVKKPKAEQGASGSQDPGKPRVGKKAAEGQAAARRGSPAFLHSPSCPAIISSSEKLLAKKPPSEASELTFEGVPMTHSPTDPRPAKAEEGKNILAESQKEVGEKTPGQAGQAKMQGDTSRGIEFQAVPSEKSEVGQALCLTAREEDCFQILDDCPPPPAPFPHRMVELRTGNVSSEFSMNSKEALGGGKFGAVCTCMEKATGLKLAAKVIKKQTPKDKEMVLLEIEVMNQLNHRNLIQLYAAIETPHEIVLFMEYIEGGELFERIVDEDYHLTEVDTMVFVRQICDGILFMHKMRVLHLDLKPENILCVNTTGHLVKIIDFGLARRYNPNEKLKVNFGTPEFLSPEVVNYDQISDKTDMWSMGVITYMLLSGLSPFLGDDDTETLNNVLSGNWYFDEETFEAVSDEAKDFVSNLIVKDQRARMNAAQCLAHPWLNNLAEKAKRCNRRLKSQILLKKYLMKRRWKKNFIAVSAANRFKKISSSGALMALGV

KinomeScan kinase panel [7] = molecular target: T7, KinomeScan kinase panel (Homo sapiens, UniProt P51813); experiment: as above; assay type: binding; settings: BMX, 10 µM; read-out: score (%)
T7 construct: purchased DiscoveRx (KinomeScan)
T7 sequence (P51813 1-675): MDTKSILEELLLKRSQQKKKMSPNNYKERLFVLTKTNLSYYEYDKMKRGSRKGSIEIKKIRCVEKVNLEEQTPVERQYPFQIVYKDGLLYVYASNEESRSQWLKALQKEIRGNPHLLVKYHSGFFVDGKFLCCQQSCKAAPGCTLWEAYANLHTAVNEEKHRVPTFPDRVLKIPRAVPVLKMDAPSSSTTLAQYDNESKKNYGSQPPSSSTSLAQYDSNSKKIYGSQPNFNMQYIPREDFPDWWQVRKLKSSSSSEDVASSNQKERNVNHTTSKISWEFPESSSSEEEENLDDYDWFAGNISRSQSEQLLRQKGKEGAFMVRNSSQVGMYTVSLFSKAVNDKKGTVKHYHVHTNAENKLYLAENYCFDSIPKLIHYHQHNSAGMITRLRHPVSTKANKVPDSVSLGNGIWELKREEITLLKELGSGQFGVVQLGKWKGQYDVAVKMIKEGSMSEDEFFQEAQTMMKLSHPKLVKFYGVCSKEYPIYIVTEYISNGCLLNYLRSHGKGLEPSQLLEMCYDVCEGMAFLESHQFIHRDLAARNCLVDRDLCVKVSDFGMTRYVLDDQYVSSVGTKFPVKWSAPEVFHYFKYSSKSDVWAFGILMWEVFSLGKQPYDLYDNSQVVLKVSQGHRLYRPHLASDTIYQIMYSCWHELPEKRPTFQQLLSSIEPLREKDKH

KinomeScan kinase panel [8] = molecular target: T8, KinomeScan kinase panel (Homo sapiens, UniProt Q9HCP0); experiment: as above; assay type: binding; settings: CSNK1G1, 10 µM
T8 construct: purchased DiscoveRx (KinomeScan)
T8 sequence (Q9HCP0 whole entry): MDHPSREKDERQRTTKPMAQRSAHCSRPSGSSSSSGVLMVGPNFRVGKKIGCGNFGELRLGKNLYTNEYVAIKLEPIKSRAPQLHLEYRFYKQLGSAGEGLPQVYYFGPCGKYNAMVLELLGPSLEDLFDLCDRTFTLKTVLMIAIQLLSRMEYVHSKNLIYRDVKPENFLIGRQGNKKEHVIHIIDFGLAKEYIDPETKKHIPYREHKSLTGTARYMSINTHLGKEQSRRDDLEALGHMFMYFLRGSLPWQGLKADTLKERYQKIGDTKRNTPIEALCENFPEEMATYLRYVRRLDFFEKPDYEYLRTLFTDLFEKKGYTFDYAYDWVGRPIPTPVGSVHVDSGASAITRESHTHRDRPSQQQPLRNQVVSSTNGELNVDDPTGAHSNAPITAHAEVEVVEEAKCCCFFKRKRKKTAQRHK

KinomeScan kinase panel [9] = molecular target: T9, KinomeScan kinase panel (Homo sapiens, UniProt P00519, F317I); experiment: as above; assay type: binding; settings: 10 µM, read-out: score (%)
T9 construct: purchased DiscoveRx (KinomeScan)

KinomeScan kinase panel [10] = molecular target: T10, KinomeScan kinase panel (Homo sapiens, UniProt Q9UPE1); experiment: as above; assay type: binding; settings: read-out: score (%)
T10 construct: purchased DiscoveRx (KinomeScan)
T10 sequence (Q9UPE1 whole entry): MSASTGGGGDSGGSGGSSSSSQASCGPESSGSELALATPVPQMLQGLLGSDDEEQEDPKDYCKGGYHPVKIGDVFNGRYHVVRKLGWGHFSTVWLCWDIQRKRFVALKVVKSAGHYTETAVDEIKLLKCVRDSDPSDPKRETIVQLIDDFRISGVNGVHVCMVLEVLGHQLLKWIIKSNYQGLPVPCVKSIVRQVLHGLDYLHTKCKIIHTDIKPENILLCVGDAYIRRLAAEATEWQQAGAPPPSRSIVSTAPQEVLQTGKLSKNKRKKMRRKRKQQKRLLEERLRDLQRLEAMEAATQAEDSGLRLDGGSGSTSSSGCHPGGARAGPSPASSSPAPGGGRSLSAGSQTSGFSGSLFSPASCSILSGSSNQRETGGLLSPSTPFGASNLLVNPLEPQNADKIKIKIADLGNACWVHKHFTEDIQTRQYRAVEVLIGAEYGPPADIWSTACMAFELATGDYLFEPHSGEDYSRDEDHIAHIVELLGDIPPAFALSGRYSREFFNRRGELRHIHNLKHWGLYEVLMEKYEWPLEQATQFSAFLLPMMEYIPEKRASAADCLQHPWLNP

KinomeScan kinase panel [11] = molecular target: T11, KinomeScan kinase panel (Homo sapiens, UniProt Q92918); experiment: as above; assay type: binding; settings: read-out: score (%)
T11 construct: purchased DiscoveRx (KinomeScan)
T11 sequence (Q92918 whole entry): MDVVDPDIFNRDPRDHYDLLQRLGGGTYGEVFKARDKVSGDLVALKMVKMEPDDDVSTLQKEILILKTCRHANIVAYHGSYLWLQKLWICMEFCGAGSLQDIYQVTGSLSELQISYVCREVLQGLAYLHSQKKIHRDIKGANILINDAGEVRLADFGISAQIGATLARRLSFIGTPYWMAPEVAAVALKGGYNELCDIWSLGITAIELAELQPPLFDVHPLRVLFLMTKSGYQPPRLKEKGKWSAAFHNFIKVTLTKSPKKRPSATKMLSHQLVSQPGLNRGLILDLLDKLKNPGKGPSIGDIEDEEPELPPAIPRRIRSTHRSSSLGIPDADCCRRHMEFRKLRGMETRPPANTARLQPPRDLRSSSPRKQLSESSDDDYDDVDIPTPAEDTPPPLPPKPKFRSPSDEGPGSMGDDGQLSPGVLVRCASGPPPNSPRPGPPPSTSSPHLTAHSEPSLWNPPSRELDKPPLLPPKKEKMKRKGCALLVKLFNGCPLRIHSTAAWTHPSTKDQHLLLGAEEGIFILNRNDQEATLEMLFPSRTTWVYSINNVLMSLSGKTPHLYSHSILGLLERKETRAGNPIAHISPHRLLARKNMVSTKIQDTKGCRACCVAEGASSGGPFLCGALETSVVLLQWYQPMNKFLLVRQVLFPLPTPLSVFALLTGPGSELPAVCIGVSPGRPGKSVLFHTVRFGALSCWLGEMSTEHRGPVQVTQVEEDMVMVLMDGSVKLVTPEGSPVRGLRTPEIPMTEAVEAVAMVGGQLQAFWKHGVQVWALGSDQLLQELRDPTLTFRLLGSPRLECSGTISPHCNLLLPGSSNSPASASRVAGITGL

KinomeScan kinase panel [12] = molecular target: T12, KinomeScan kinase panel (Homo sapiens, UniProt Q8N568); experiment: as above; assay type: binding; settings: DCAMKL2, 10 µM; read-out: score (%)
T12 construct: purchased DiscoveRx (KinomeScan)
T12 sequence (Q8N568 whole entry): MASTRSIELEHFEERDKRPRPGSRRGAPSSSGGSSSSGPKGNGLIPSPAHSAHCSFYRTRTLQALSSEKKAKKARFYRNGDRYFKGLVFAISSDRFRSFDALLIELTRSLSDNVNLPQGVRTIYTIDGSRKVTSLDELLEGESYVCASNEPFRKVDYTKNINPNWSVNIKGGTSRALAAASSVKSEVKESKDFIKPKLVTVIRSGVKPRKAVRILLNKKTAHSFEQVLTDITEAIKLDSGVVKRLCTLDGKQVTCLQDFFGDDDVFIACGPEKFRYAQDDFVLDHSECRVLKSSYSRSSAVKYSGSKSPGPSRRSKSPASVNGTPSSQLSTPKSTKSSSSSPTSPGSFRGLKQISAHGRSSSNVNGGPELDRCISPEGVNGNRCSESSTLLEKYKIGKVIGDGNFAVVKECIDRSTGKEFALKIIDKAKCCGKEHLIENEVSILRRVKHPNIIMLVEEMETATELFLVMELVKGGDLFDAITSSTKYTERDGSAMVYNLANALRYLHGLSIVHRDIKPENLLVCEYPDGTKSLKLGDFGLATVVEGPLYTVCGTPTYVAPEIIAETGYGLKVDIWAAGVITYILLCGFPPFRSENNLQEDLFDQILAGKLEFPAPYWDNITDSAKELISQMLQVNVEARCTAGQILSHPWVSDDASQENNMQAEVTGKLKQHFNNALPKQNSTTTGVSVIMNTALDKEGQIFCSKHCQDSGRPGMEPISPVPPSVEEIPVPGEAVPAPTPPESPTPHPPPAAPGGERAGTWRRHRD

TPC-1 cells = experiment: Growth curves, TPC-1 papillary thyroid carcinoma cells (RET/PTC1); assay type: cell-based; settings: Homo sapiens, TPC1; 2% serum; 95% CI in brackets; read-out: Growth inhibition IC50 dose TPC-1
Method: TT human cell line was obtained in 2002 from ATCC and authenticated by RET genotyping; it was derived from a MTC and harbors a cysteine 634 to tryptophan (C634W) RET mutation. TT cells were grown in RPMI 1640 supplemented with 20% fetal calf serum (GIBCO). MZ-CRC-1 human cells were kindly provided in 2009 by Robert F. Gagel (MD Anderson, Houston, TX) and authenticated by RET genotyping. […] Nthy-ori 3–1, a human thyroid follicular epithelial cell line immortalized by the SV40 large T gene, was obtained from European Collection of Cell Cultures (ECACC) (Wiltshire, UK) in 2010.
(§1) To compare cell growth, we performed unpaired Student’s t test using the Instat software program (Graphpad Software Inc). P values were two-sided, and differences were considered statistically significant at P <.02. IC50 doses were calculated through a curve fitting analysis from last day values using the PRISM software program (Graphpad Software Inc).

RAT1 cells = experiment: Growth curves, parental RAT1 cells; assay type: cell-based, rat; settings: low serum
Method: as §1

Compound | inhibition of RET/C634Y protein (RET/C634Y) | remaining binding at 10 µM (KinomeScan kinase panel [1]) | remaining binding at 10 µM (KinomeScan kinase panel [2]; FAK, 10 µM) | remaining binding at 10 µM (KinomeScan kinase panel [3]) | remaining binding at 10 µM (KinomeScan kinase panel [4]; PRKX) | remaining binding at 10 µM (KinomeScan kinase panel [6]) | remaining binding at 10 µM (KinomeScan kinase panel [7]) | score (%) (KinomeScan kinase panel [8]) | remaining binding at 10 µM (KinomeScan kinase panel [9]; ABL1(F317I)) | remaining binding at 10 µM (KinomeScan kinase panel [10]; kinase SRPK3, 10 µM) | remaining binding at 10 µM (KinomeScan kinase panel [11]; HPK1, 10 µM) | remaining binding at 10 µM (KinomeScan kinase panel [12]) | IC50 (TPC-1 cells) | Growth inhibition IC50 dose: RAT1 (RAT1 cells) | score (%) (KinomeScan kinase panel [5]; EGFR(E746-A750del), 10 µM) | also measured
CCN1CCN(Cc2ccc(NC(=O)c3ccc(C)c(NC(=O)c4cncc(-c5cccs5)c4)c3)cc2C(F)(F)F)CC1 [ALW-II-41-27] | > 30% | > 30% | > 30% | 4.3% | > 30% | > 30% | 11% | nb (Hits values higher than 30% were considered negative (no binding: nb)) | 0.2% | > 30% | 0.75% | > 30% | 0.0197 µM | Not measurable |  | score (%) (KinomeScan kinase panel [5]): 1.2%
CCN1CCN(Cc2ccc(NC(=O)c3ccc(C)c(/C=C/c4cnc5[nH]ccc5c4Cl)c3)cc2C(F)(F)F)CC1 [HG-6-63-01, (E)-3-(2-(4-chloro-1H-pyrrolo[2,3-b]pyridin-5-yl)vinyl)-N-(4-((4-ethylpiperazin-1-yl)methyl)-3-(trifluoromethyl)phenyl)-4-methylbenzamide] | > 30% | > 30% |  | 1.6% | > 30% | 0.25% | 1.6% | nb (Hits values higher than 30% were considered negative (no binding: nb)) | 0.05% |  |  | > 30% | 0.0098 µM | Not measurable | 0.9% | remaining binding at 10 µM (KinomeScan kinase panel [2]; PTK2, 10 µM): > 30%; remaining binding at 10 µM (KinomeScan kinase panel [10]; SRPK3, 10 µM): 22%; remaining binding at 10 µM (KinomeScan kinase panel [11]; MAP4K1, 10 µM): 0.1%
CCN1CCN(Cc2ccc(NC(=O)c3ccc(C)c(C#Cc4cccnc4)c3)cc2C(F)(F)F)CC1 [XMD15-44] | > 30% | 100% | > 30% | 0.5% |  | 3.4% | 2.7% | nb (Hits values higher than 30% were considered negative (no binding: nb)) |  | 45% | 0.4% | > 30% | 0.0371 µM | Not measurable | 1.8% | remaining binding at 10 µM (KinomeScan kinase panel [4]; kinase PRKX): 3.6%; remaining binding at 10 µM (KinomeScan kinase panel [9]; ABL1(F317I)-nonphosphorylated): 8.8%; remaining binding at 10 µM (KinomeScan kinase panel [9]; ABL1(F317I)-phosphorylated): 4%
